From patent publication US5070210A, “Novel ketenimines as intermediates for insecticides” (ICI Americas Inc., priority 1990, dated 1991)

Assays:
Type in all cases: in vivo
[1] = system: Housefly [Musca domestica]; test: Housefly insecticidal test; conditions: μg per 25 female flies; mortality after 48 hours
Procedure, shortened: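 Dose range started at 100 μg per 25 female flies and went downward. Insects (1-2 days old) contacted a dried acetone/peanut-oil deposit in dishes; LC50 values come from dosage-mortality curves at 48 h.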

[2] = system: Cabbage Looper [Trichoplusia ni (Hubner)]; test: Cabbage looper insecticidal test; conditions: second-instar larvae, percent in solution; 3-5 days
Procedure, shortened: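 Squash cotyledons dipped in test solution (acetone-water 50-50, ≤0.1%), dried, offered to 5 second-instar larvae; mortality after 3-5 days gives LC50.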

[3] = system: Aster Leafhopper [Macrosteles fascifrens (Stal)]; test: Aster leafhopper insecticidal test; conditions: adults/nymphs, percent in solution; 48 hours
Method: The compounds in Tables 1 and 2 above were tested for insecticidal activity using the following testing procedures. LC50 values, based on the results of these tests and calculated according to dosage-mortality curves, are expressed in Table 3.
Aster Leafhopper [Macrosteles fascifrens (Stal)]
Oat seedlings (Avena sp) were grown in a commercial potting soil in cups. When the plants were approximately 10 cm tall they were thinned to three plants per cup and dipped for 2-3 seconds in 50-50 acetone-water solutions of the test compounds. When the plants had dried, a clear plastic tube was placed over them and the bottom end pressed into the cup. Ten aster leafhopper adults/nymphs were then placed in each tube and the tops of the tubes covered with white organdy cloth. Mortality counts were made after 48 hours. Test concentrations ranged from 0.05% down to that at which 50% mortality occurred. The LC50 values are expressed below in Table 3 under the heading "LH" in terms of the percent of the test compound in the solution.

[4] = system: Maize weevil [Sitophilus Zeamais (Motschulsky)]; test: Maize weevil insecticidal test; conditions: adult weevils, percent in solution; 48 hours
Procedure, shortened: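 LC50, in percent of compound in solution, was derived from dosage-mortality curves after 48 h at about 25 °C. Ten adult weevils per container fed on four corn seeds briefly immersed in acetone:water (50:50) solutions of up to 0.01% and dried.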

[5] = system: Tobacco Budworm [Heliothis virescens (Fabricius)] eggs; test: Tobacco budworm egg test; conditions: 2-day old eggs, percent in solution
Procedure, shortened: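 Step 1: dip 2-day old egg patches in acetone test solutions (top concentration 0.1%). Step 2: hold in dishes with rearing medium at 78° F. Step 3: record mortality after control hatch and feeding.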

Structure (SMILES) | LC50, HF [1] [µg] | LC50, CL [2] [%] | LC50, LH [3] [%] | LC50, MW [4] [%] | LC50, TBW, E (TBW-E) [5] [%]
CC(C)C(=Nc1ccc2c(c1)OCO2)OCc1cccc(Oc2ccc(C(C)(C)C)cc2)c1 [Compound 367] | > 100 | < 0.1 | > 0.05 | > 0.01 | > 0.1
CC(C)C(=Nc1ccc(Br)c(C(F)(F)F)c1)OCc1ccc(F)c(Oc2ccc(F)cc2)c1 [Compound 364] | < 100 | 0.00045 | < 0.05 | > 0.01 | 0.025
c1ccc(Oc2cccc(COC(=Nc3ccc4c(c3)OCO4)C3CC3)c2)cc1 [Compound 177] | 13 | 0.002 | > 0.05 | 0.01 | > 0.1
Cc1ccc(N=C(OCc2ccc(F)c(Oc3ccc(F)cc3)c2)C(C)C)cc1F [Compound 355] | < 100 | > 0.1 | < 0.05 | > 0.01 | > 0.1
CCS(=O)(=O)c1ccc(N=C(OCc2cccc(Oc3ccccc3)c2)C(C)C)cc1Cl [Compound 112] | > 100 | 0.025 | > 0.05 | > 0.01 | > 0.1
CC(C)C(=Nc1ccc2c(c1)OCO2)OCc1ccnc(Oc2ccccc2)c1 [Compound 540] | > 100 | < 0.1 | > 0.05 | > 0.01 | > 0.1
CC(C)C(=Nc1ccccc1)OCc1cccc(Oc2ccccc2)c1 [Compound 43] | 7 | 0.018 | > 0.05 | > 0.01 | 0.05
C=C(C)C(=Nc1ccc(Cl)cc1)OCc1cccc(Oc2ccccc2)c1 [Compound 6] | 17 | 0.02 | > 0.05 | > 0.01 | 0.015
CC(C)C(=Nc1ccc(C(F)(F)F)cc1)OCc1cccc(Cc2ccccc2)c1 [Compound 543] | < 100 | 0.0008 | < 0.05 | > 0.01 | 
CC(C)C(=Nc1ccc(C#N)cc1)OCc1cccc(Oc2ccccc2)c1 [Compound 172] | 5 | 0.002 | > 0.05 | > 0.01 | 0.04
C#CC(OC(=Nc1cccc(C(F)(F)F)c1)C(C)C)c1cccc(Oc2ccccc2)c1 (stereo not drawn) [Compound 519] | 60 | 0.0037 | > 0.05 | > 0.01 | > 0.1
CC(C)C(=Nc1ccc(F)c(Cl)c1)OCc1cccc(Oc2ccc(Cl)cn2)c1 [Compound 527] | 47 | 0.00065 | > 0.05 | > 0.01 | 0.035
COc1ccc(N=C(OCc2ccc(F)c(Oc3ccc(F)cc3)c2)C(C)C)cc1OC [Compound 363] | < 100 | > 0.1 | > 0.05 | > 0.01 | > 0.1
Fc1ccc(N=C(OCc2cccc(Oc3ccccc3)c2)C(F)(F)C(F)(F)F)cc1Cl [Compound 117] | 55 | 0.006 | 0.0003 | > 0.01 | > 0.1
CC(C)C(=Nc1cccc(C(C)(C)C)c1)OCc1cccc(Oc2ccc(F)cc2)c1 [Compound 350] | > 100 | 0.0045 | > 0.05 | > 0.01 | > 0.1
FC(F)(F)C(=Nc1ccc(Cl)cc1)OCc1cccc(Oc2ccccc2)c1 [Compound 35] | 15 | 0.008 | > 0.05 | > 0.01 | 0.03
CC(C)(C)C(=Nc1ccc(Cl)c(Cl)c1)OCc1cccc(Oc2ccccc2)c1 [Compound 25] | > 100 | 0.01 | > 0.05 | > 0.01 | > 0.1
CC1(C)C(C(=Nc2ccc(F)c(Cl)c2)OCc2cccc(Oc3ccccc3)c2)C1(C)C [Compound 124] | 17 | 0.01 | > 0.05 | > 0.01 | > 0.1

Structure (SMILES) | LC50, HF [1] [µg] | LC50, CL [2] [%] | LC50, LH [3] [%] | LC50, MW [4] [%] | LC50, TBW, E (TBW-E) [5] [%]
N#CC(=Nc1ccc(Cl)cc1)OCc1cccc(Oc2ccccc2)c1 [Compound 21] | 7 | 0.02 | > 0.05 | > 0.01 | > 0.1
COC(=O)c1ccc(N=C(OCc2cccc(Oc3ccccc3)c2)C(C)C)cc1 [Compound 151] | 38 | 0.009 | > 0.05 | > 0.01 | > 0.1
CC(C)C(=Nc1cccc(C(F)(F)F)c1)OCc1cc(Oc2ccc(F)cc2)ccn1 [Compound 528] |  | 0.0075 | > 0.05 | > 0.01 | > 0.1
COCc1c(F)c(F)c(COC(=Nc2ccc(F)c(Cl)c2F)C(C)C)c(F)c1F [Compound 522] |  | > 0.1 | 0.05 | > 0.01 | > 0.1
CC(C)C(=Nc1ccc(F)c(Cl)c1)OCc1cc(Oc2ccc(F)cc2)ccn1 [Compound 529] |  | > 0.0025 | > 0.05 | > 0.01 | > 0.1
CSc1ccc(Oc2cccc(COC(=Nc3ccc(F)cc3)C(C)C)c2)cc1 [Compound 257] | > 100 | 0.008 | > 0.05 |  | > 0.1
CC(C)C(=Nc1ccc(C(C)C)cc1)OCc1cccc(Oc2ccc(F)cc2)c1 [Compound 228] | > 100 | 0.0025 | > 0.05 |  | > 0.1
CC(C)C(=Nc1ccc(Br)cc1)OCc1cccc(Oc2ccccc2)c1 [Compound 131] | 17 | 0.0045 | 0.005 |  | > 0.1
CC(C)C(=Nc1ccc(F)c(Cl)c1)OCc1cccc(Cc2ccccc2)c1 [Compound 541] | < 100 | 0.001 | > 0.05 | > 0.01 | 
COc1ccc(OC)c(N=C(OCc2cccc(Oc3ccccc3)c2)C(C)C)c1 [Compound 69] | > 100 | 0.09 | > 0.05 |  | > 0.1
Cc1ccc(Oc2cccc(COC(=Nc3ccc(F)c(Cl)c3)C(C)C)c2)cc1 [Compound 225] | > 100 | 0.0025 | > 0.05 |  | > 0.1
CC(C)C(=Nc1ccc2c(c1)CCC2)OCc1cccc(Oc2ccccc2)c1 [Compound 187] | 15 | 0.0025 | 0.0025 |  | > 0.1
CCc1ccc(N=C(OCc2cccc(Oc3ccc(F)cc3)c2)C(C)C)cc1 [Compound 159] | 25 | 0.001 | 0.0025 |  | 0.08
CC(C)C(=Nc1ccc(C(F)(F)F)c(Cl)c1)OCc1cccc(Oc2ccccc2)c1 [Compound 83] | > 100 | 0.007 | > 0.05 |  | > 0.1
Fc1ccc(Oc2cccc(COC(=Nc3ccc(F)c(Cl)c3)C(F)(F)C(F)(F)F)c2)cc1 [Compound 258] | > 100 | 0.003 | > 0.05 |  | > 0.1
CC(C)C(=Nc1c(F)cc(F)cc1Br)OCc1cccc(Oc2ccccc2)c1 [Compound 129] | > 100 | 0.005 | 0.01 |  | > 0.1
CC(C)(C)C(=Nc1ccc(Br)cc1)OCc1cccc(Oc2ccccc2)c1 [Compound 135] | > 100 | 0.004 | > 0.05 |  | > 0.1
